In US20180296537A1, “METHODS AND COMPOSITIONS FOR DIAGNOSING, TREATING, AND MONITORING TREATMENT OF SHANK3 DEFICIENCY ASSOCIATED DISORDERS” (Novartis AG, priority 2015, published 2018):

Tested on: rpS6
Assay: Western blot of rpS6 phosphorylation in Shank3 knock down primary neurons
Assay type: cell-based, rat
Source text: E18 primary rat cortical neurons were dissected, cultured and infected 6 days after plating (DIV6) with indicated lentiviruses at MOI 10, as previously described (Proenca et al., 2013). Lentiviruses were produced by calcium phosphate transfection of HEK293T cells with packaging plasmids (Life Technologies) and transfer plasmid in 10 cm dishes. Cells were transferred to fresh medium 6 hrs. post-transfection. Four days post-transfection, the cell medium was collected and pooled from several dishes, cleared of cellular debris by 0.45 μm filtration, and concentrated 100× by centrifugation at 19,000 g for 90 min in a Beckman Ultracentrifuge using a SW28/SW32 rotor. Pellets were suspended in PBS/0.5% BSA and viral titer was determined by ELISA quantification of viral p24 antigen (Zeptometrix Corp, USA). For shRNA plasmid generation, oligonucleotides were annealed and ligated into lentiviral transfer plasmid pLKO.1-GFP vector at the AgeI/EcoRI sites. The target sequences of shRNAs that target rat and mouse Shank3 (5′-3′) are: […] (SEQ ID NO: 1), […] (SEQ ID NO: 2), and […] (SEQ ID NO: 3). The latter was previously reported (Verpelli et al., 2011). A luciferase-targeting sequence was used as an shRNA control: […] (SEQ ID NO: 4). […]

Row | Structure (SMILES) | rpS6 phosphorylation (Shank3 knock-down (shShank3) neurons, TG003 (FIG. 3F)) | rpS6 phosphorylation (Shank3 knock down primary neurons, SC79 treatment)
1 | CCN1/C(=C/C(C)=O)Sc2ccc(OC)cc21 [TG003, (Z)-1-(3-ethyl-5-methoxy-2,3-dihydrobenzothiazol-2-ylidene)propan-2-one] | restores Akt and rpS6 phosphorylation | –
2 | CCOC(=O)C1=C(N)Oc2ccc(Cl)cc2C1C(C#N)C(=O)OCC (centres unmarked) [SC79] | – | restored Akt and rpS6 phosphorylation
